Assay results published in patent US20220202943A1, “TOPICAL COMPOSITIONS FOR SKIN COMPRISING A CELL PENETRATING PEPTIDE AND METHODS OF USING THE SAME” (ImDerma Laboratories Co. Ltd., priority 2020, published 2022).
Where no end group is shown, it is not given here.

Columns and labels:
Assay type in all cases: cell-based, human
[1] = tested on: HaCaT cells; assay: Intracellular ROS induced by H2O2 in HaCaT cells, DCFDA fluorescence assay
Procedure: (§1) Following the removal of DMEM medium in the 96-well plate, 100 uL of 1 μM peptide X and 100 uL of tea polyphenols (0.01%, 0.05% or 0.1%), were added in the 96-well plate. After 2, 4, 6, 16 or 24 hours of reaction, the peptide X and tea polyphenols were removed and then DMEM medium with 1.2 mM H2O2 was added for 2 hours of reaction in dark to induce intracellular ROS in the HaCaT cells. After the above reaction, DMEM medium with 1.2 mM H2O2 was removed from the 96-well plate and 100 μL of 10 μM DCFDA (2′,7′—dichlorofluorescin diacetate) was added for half an hour of reaction to measure the levels of intracellular ROS in HaCaT cells using fluorescence assay. Following the removal of DCFDA, the treated cells were washed with 200 μL of PBS. Subsequently, after PBS was removed, 100 μL of transparent DMEM medium was added and absorbance at 488/520 nm was measured to determinate the levels of intracellular ROS. After the above measurement, the transparent DMEM medium was removed and then 100 μL of 1 mg/mL MTT was added for 2 hours of reaction; subsequently, the absorbance at 595 nm was measured for calculating the cell viability.
EUK134™ (0.12 μM, 0.23 μM or 2.35 μM) or a mixture of peptide X (1 μM) and EUK134™ (0.12 μM or 0.23 μM), were added in HaCaT cells for 8 hours of reaction. Following the removal of EUK134™ and the mixture of peptide X and EUK134™, 1.2 mM H2O2 was added to induce intracellular ROS in the HaCaT cells and then the levels of intracellular ROS were detected using DCFDA. After the detection of the levels of intracellular ROS, the cell viability was confirmed using MTT assay.
Resveratrol (6.25 μM, 12.5 μM or 25 μM) or a mixture of peptide X (1 μM) and resveratrol (6.25 μM, 12.5 μM or 25 μM), were added in HaCaT cells for different time of reaction. Following the removal of resveratrol and the mixture of peptide X and resveratrol, 1.2 mM H2O2 was added to induce intracellular ROS in the HaCaT cells and then the levels of intracellular ROS were detected using DCFDA. After the detection of the levels of intracellular ROS, the cell viability was confirmed using MTT assay.

[2] = tested on: HaCaT cells; assay: Cell viability of HaCaT cells, MTT assay; conditions: 1.0 μM peptide X
Procedure: as §1
EUK134™ (0.12 μM, 0.23 μM or 2.35 μM) or a mixture of peptide X (1 μM) and EUK134™ (0.12 μM or 0.23 μM), were added in HaCaT cells for 8 hours of reaction. […]

[3] = tested on: type I pro-collagen; assay: Type I pro-collagen level in Hs68 cells, ELISA; conditions: TGF-β 10 ng/mL
Procedure: In order to confirm if the peptide X is capable of delivering TGF-β into skin cells, Hs68 cells were seeded in a 6-well plate. Following the removal the medium in the 6-well plate, TGF-β (10 ng/mL), peptide X (1.0 μM) or a mixture of TGF-β (10 ng/mL) and peptide X (1.0 μM) were added in the 6-well plate. After 6, 12 or 24 hours of reaction, the level of type I pro-collagen in the cells was confirmed using ELISA kit with human pro-collagen 1 alpha 1 capture antibody and human pro-collagen 1 alpha 1 detector antibody.

With Oc1ccc(/C=C/c2cc(O)cc(O)c2)cc1 [resveratrol, reference compound] the “reduction of level of intracellular ROS induced by H2O2” value ([1]; resveratrol 6.25, 12.5 or 25 μM without peptide X, no significant difference among concentrations) was 75˜80%.

“NYRWRCKNQN [peptide X, Asn-Tyr-Arg-Trp-Arg-Cys-Lys-Asn-Gln-Asn]” was tested, and the “cytotoxicity to HaCaT cells” value [2] was “no cytotoxicity”.

With TGF-β the “increase of expression of type I pro-collagen” value [3] was roughly 20%.

In the case of “ethylbisiminomethylguaiacol manganese chloride [EUK134™]”, the “reduction of level of intracellular ROS induced by H2O2” value ([1]; 0.12 μM EUK134 without peptide X, 8 hours of treatment) is reported as 50%, the “reduction of level of intracellular ROS” value ([1]; 0.23 μM EUK134 without peptide X, 8 hours of treatment) is reported as 50% and the “level of intracellular ROS induced by H2O2” value ([1]; EUK134 0.12, 0.23 or 2.35 μM without peptide X, with the increase of concentration, 8 hours) is reported as “slightly decreased”.
